Experimental data taken from patent publication US20230416225A1, “DIAMINOPYRIMIDINE CARBOXAMIDE INHIBITORS OF HPK1” (MERCK SHARP & DOHME LLC, priority 2020, published 2023).

Target: T1, Human HPK1, catalytic domain (Homo sapiens, UniProt Q92918)
T1 construct: purchased Carna
T1 sequence (Q92918 1-346): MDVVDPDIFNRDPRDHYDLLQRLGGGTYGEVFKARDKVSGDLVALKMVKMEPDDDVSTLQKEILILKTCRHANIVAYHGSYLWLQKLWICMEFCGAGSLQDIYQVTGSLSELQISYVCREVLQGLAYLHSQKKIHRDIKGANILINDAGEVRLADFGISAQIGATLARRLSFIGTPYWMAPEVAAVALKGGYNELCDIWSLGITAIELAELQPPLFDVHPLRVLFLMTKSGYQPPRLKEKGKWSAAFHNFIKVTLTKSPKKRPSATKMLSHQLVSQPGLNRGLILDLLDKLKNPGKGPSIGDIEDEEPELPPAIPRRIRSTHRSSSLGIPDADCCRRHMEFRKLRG
Assay: HPK1-SLP76 TR-FRET assay
Format: biochemical
Conditions: 75 pM HPK1, 10 uM ATP, 10 nM SLP76, 30 min compound pre-incubation

SMILES | IC50 [nM]
COc1cc2c(cc1Nc1ncc(C(N)=O)c(NCc3ccccc3OC(F)(F)F)n1)CN(C)CC2 [Example 26-18, 2-[(6-methoxy-2-methyl-1,2,3,4-tetrahydroisoquinolin-7-yl)amino]-4-({[2-(trifluoromethoxy)phenyl]methyl}amino)pyrimidine-5-carboxamide] | 0.57
COc1cc2c(cc1Nc1ncc(C(N)=O)c(N[C@@H](C)c3cccc(F)c3F)n1)CN(C)CC2 [Example 26-19, 4-{[(1S)-1-(2,3-difluorophenyl)ethyl]amino}-2-[(6-methoxy-2-methyl-1,2,3,4-tetrahydroisoquinolin-7-yl)amino]pyrimidine-5-carboxamide] | 2.49
Cc1ccc(C(F)(F)F)cc1Nc1ncc(C(N)=O)c(Nc2cccc3c2CCNC3=O)n1 [Example 25-32, 2-{[2-methyl-5-(trifluoromethyl)phenyl]amino}-4-[(1-oxo-1,2,3,4-tetrahydroisoquinolin-5-yl)amino]pyrimidine-5-carboxamide] | 455
NC(=O)c1cnc(Nc2ccc3c(c2)COCC3)nc1Nc1cccc2c1CCNC2 [Example 7-16, 2-[(3,4-dihydro-1H-2-benzopyran-7-yl)amino]-4-[(1,2,3,4-tetrahydroisoquinolin-5-yl)amino]pyrimidine-5-carboxamide] | 0.14
CC(N)c1cccc(Nc2nc(Nc3cc4c(cc3Cl)CCN(C)C4)ncc2C(N)=O)c1 (stereo not drawn) [Example 2-6, 4-{[3-(1-aminoethyl)phenyl]-amino}-2-[(6-chloro-2-methyl-1,2,3,4-tetrahydroisoquinolin-7-yl)amino]pyrimidine-5-carboxamide] | 0.54
C[C@@H](Nc1ncc(C(N)=O)c(Nc2cccc3c2CCNC3=O)n1)c1ccc(F)cc1 [Example 25-8, 2-{[(1R)-1-(4-fluorophenyl)ethyl]amino}-4-[(1-oxo-1,2,3,4-tetrahydroisoquinolin-5-yl)amino]pyrimidine-5-carboxamide] | 176
COc1cc2c(cc1Nc1ncc(C(N)=O)c(Nc3c(Cl)ccc(C)c3F)n1)CN(C)CC2 [Example 4-20, 4-[(6-chloro-2-fluoro-3-methylphenyl)amino]-2-[(6-methoxy-2-methyl-1,2,3,4-tetrahydroisoquinolin-7-yl)amino]pyrimidine-5-carboxamide] | 0.21
COc1cc2c(cc1Nc1ncc(C(N)=O)c(Nc3ccccc3-c3cc(C)no3)n1)CN(C)CC2 [Example 7-85, 2-((6-methoxy-2-methyl-1,2,3,4-tetrahydroisoquinolin-7-yl)amino)-4-((2-(3-methylisoxazol-5-yl)phenyl)amino)pyrimidine-5-carboxamide] | 9.29
COc1cc2c(cc1Nc1ncc(C(N)=O)c(N[C@@H]3CCCC[C@@H]3C)n1)CN(C)CC2 [Example 26-41, 2-[(6-methoxy-2-methyl-1,2,3,4-tetrahydroisoquinolin-7-yl)amino]-4-{[(1R,2S)-2-methylcyclohexyl]amino}pyrimidine-5-carboxamide] | 0.14
COc1cc2c(cc1Nc1ncc(C(N)=O)c(NCc3cnc4ccccn34)n1)CN(C)CC2 [Example 26-56, 4-{[(imidazo[1,2-a]pyridin-3-yl)methyl]amino}-2-[(6-methoxy-2-methyl-1,2,3,4-tetrahydroisoquinolin-7-yl)amino]pyrimidine-5-carboxamide] | 777
COc1cc2c(cc1Nc1ncc(C(N)=O)c(Nc3cccc(C4(C#N)CC4)c3)n1)CN(C)CC2 [Example 7-32, 4-{[3-(1-cyanocyclopropyl)phenyl]amino}-2-[(6-methoxy-2-methyl-1,2,3,4-tetrahydroisoquinolin-7-yl)amino]pyrimidine-5-carboxamide] | 0.41
COc1cc2c(cc1Nc1ncc(C(N)=O)c(Nc3ccccc3C[C@H](O)c3ccccc3)n1)CN(C)CC2 [Example 13-9, 4-({2-[(2S)-2-hydroxy-2-phenylethyl]phenyl}amino)-2-[(6-methoxy-2-methyl-1,2,3,4-tetrahydroisoquinolin-7-yl)amino]pyrimidine-5-carboxamide] | 312
COC(=O)N1CCc2cc(OC)c(Nc3ncc(C(N)=O)c(Nc4ccccc4Br)n3)cc2C1 [Example 12-12, methyl 7-({4-[(2-bromophenyl)amino]-5-carbamoylpyrimidin-2-yl}amino)-6-methoxy-3,4-dihydroisoquinoline-2(1H)-carboxylate] | 284
NC(=O)c1cnc(Nc2cccc(OC(F)F)c2)nc1Nc1cccc2c1CCNC2=O [Example 25-16, 2-{[3-(difluoromethoxy)phenyl]amino}-4-[(1-oxo-1,2,3,4-tetrahydroisoquinolin-5-yl)amino]pyrimidine-5-carboxamide] | 14.5
COc1cc2c(cc1Nc1ncc(C(N)=O)c(Nc3ccccc3Br)n1)CN(C(=O)C(C)C)CC2 [Example 12-3, 4-[(2-bromophenyl)amino]-2-{[6-methoxy-2-(2-methylpropanoyl)-1,2,3,4-tetrahydroisoquinolin-7-yl]amino}pyrimidine-5-carboxamide] | 598
COc1cc2c(cc1Nc1ncc(C(N)=O)c(NCc3ccncc3)n1)CN(C)CC2 [Example 26-55, 2-[(6-methoxy-2-methyl-1,2,3,4-tetrahydroisoquinolin-7-yl)amino]-4-{[(pyridin-4-yl)methyl]amino}pyrimidine-5-carboxamide] | 224
COc1cc2c(cc1Nc1ncc(C(N)=O)c(NC3C4CC3C4)n1)CN(C)CC2 (stereo not drawn) [Example 26-4, 4-[(bicyclo[1.1.1]pentan-2-yl)amino]-2-[(6-methoxy-2-methyl-1,2,3,4-tetrahydroisoquinolin-7-yl)amino]pyrimidine-5-carboxamide] | 1.33
COc1cc2c(cc1Nc1ncc(C(N)=O)c(Nc3c(F)cccc3C(F)(F)F)n1)CN(CC(C)(C)O)CC2 [Example 5-1, 4-((2-Fluoro-6-(trifluoromethyl)phenyl)amino)-2-((2-(2-hydroxy-2-methylpropyl)-6-methoxy-1,2,3,4-tetrahydroisoquinolin-7-yl)amino)pyrimidine-5-carboxamide] | 2.97
COc1cc2c(cc1Nc1ncc(C(N)=O)c(NCc3ccccc3)n1)CN(C)CC2 [Example 26-36, 4-(benzylamino)-2-[(6-methoxy-2-methyl-1,2,3,4-tetrahydroisoquinolin-7-yl)amino]pyrimidine-5-carboxamide] | 6.05
Cc1cccc(F)c1Nc1nc(Nc2ccc(S(C)(=O)=O)cc2)ncc1C(N)=O [Example 4-25, 4-[(2-fluoro-6-methylphenyl)amino]-2-{[4-(methylsulfonyl)phenyl]amino} pyrimidine-5-carboxamide] | 81.6
COc1cc2c(cc1Nc1ncc(C(N)=O)c(NCc3nccs3)n1)CN(C)CC2 [Example 26-60, 2-[(6-methoxy-2-methyl-1,2,3,4-tetrahydroisoquinolin-7-yl)amino]-4-{[(1,3-thiazol-2-yl)methyl]amino}pyrimidine-5-carboxamide] | 4.89
CNC(=O)c1cccc(Nc2nc(Nc3cc4c(cc3Cl)CCN(C)C4)ncc2C(N)=O)c1 [Example 7-39, 2-[(6-chloro-2-methyl-1,2,3,4-tetrahydroisoquinolin-7-yl)amino]-4-{[3-(methylcarbamoyl)phenyl]amino} pyrimidine-5-carboxamide] | 57.4
COc1ccc2c(c1)C(Nc1nc(Nc3cc4c(cc3OC)CCN(C)C4)ncc1C(N)=O)CC2 (stereo not drawn) [Example 26-69, 4-[(6-methoxy-2,3-dihydro-1H-inden-1-yl)amino]-2-[(6-methoxy-2-methyl-1,2,3,4-tetrahydroisoquinolin-7-yl)amino]pyrimidine-5-carboxamide] | 42.5
Cc1cccc(Nc2ncc(C(N)=O)c(Nc3cccc4c3CCNC4=O)n2)c1 [Example 25-19, 2-[(3-methylphenyl)amino]-4-[(1-oxo-1,2,3,4-tetrahydroisoquinolin-5-yl)amino]pyrimidine-5-carboxamide] | 2.61
NC(=O)c1cnc(Nc2cc(F)cc(F)c2)nc1Nc1cccc2c1CCNC2=O [Example 25-31, 2-[(3,5-difluorophenyl)amino]-4-[(1-oxo-1,2,3,4-tetrahydroisoquinolin-5-yl)amino]pyrimidine-5-carboxamide] | 29.6
CNC(=O)c1cccc(Nc2nc(Nc3cc4c(cc3F)CCN(C)C4)ncc2C(N)=O)c1 [Example 7-41, 2-[(6-fluoro-2-methyl-1,2,3,4-tetrahydroisoquinolin-7-yl)amino]-4-{[3-(methylcarbamoyl)phenyl]amino} pyrimidine-5-carboxamide] | 8.85
CCc1ccccc1Nc1nc(Nc2cc3c(cc2OC)CCN(C)C3)ncc1C(N)=O [Example 4-27] | 0.08
CC(N)c1cccc(Nc2nc(Nc3cc4c(cc3F)CCN(C)C4)ncc2C(N)=O)c1 (stereo not drawn) [Example 2-7, 4-{[3-(1-aminoethyl)phenyl]-amino}-2-[(6-fluoro-2-methyl-1,2,3,4-tetrahydroisoquinolin-7-yl)amino]pyrimidine-5-carboxamide] | 0.24
COCCC(=O)N1CCc2cc(OC)c(Nc3ncc(C(N)=O)c(Nc4ccccc4Br)n3)cc2C1 [Example 12-4, 4-[(2-bromophenyl)amino]-2-{[6-methoxy-2-(3-methoxypropanoyl)-1,2,3,4-tetrahydroisoquinolin-7-yl]amino}pyrimidine-5-carboxamide] | 380
COc1cc2c(cc1Nc1ncc(C(N)=O)c(N[C@H]3C[C@H]4CC[C@@H](C3)N4C)n1)CN(C)CC2 [Example 26-26, 2-[(6-methoxy-2-methyl-1,2,3,4-tetrahydroisoquinolin-7-yl)amino]-4-{[(1R,3r,5S)-8-methyl-8-azabicyclo[3.2.1]octan-3-yl]amino}pyrimidine-5-carboxamide] | 3.31
